# Laboratory results taken from ChEMBL document CHEMBL1165964, “Design and synthesis of spirotryprostatin-inspired diketopiperazine systems from prolyl spirooxoindolethiazolidine derivatives” (Bioorg Med Chem, 2010).
# The source made the active and inactive calls. No cut-off for these calls is given here.
# Columns and labels:
# Assay type in all cases: functional, cell-based
# A-431 = assay: Cytotoxicity against human A431 cells at 100 uM after 48 hrs by MTT assay
# T47D = assay: Cytotoxicity against human T47D cells at 100 uM after 48 hrs by MTT assay
# MCF7 [1] = assay: Cell cycle arrest in human MCF7 cells
# MCF7 [2] = assay: Cytotoxicity against human MCF7 cells at 100 uM after 48 hrs by MTT assay
# MCF7 [3] = assay: Cytotoxicity against human MCF7 cells after 48 hrs by MTT assay; conditions: MCF7, 48 h
# [4] = Cell cycle arrest in mouse tsFT210 cells assessed as accumulation of cells at G2/M phase
Structure (SMILES),Activity (A-431),Activity (T47D),Activity (MCF7 [1]),Activity (MCF7 [2]),IC50 (MCF7 [3]) [µM],IC50 [4] [µM]
O=C1[C@@H]2CS[C@]3(C(=O)Nc4ccc(Br)cc43)N2C(=O)[C@@H]2CCCN12,inactive,inactive,inactive,inactive,–,–
CCOC(=O)[C@@]1(c2cc(Br)ccc2N)SC[C@H]2C(=O)N3CCC[C@H]3C(=O)N21,–,–,–,–,2.2,–
Cc1ccc2c(c1)[C@@]1(SC[C@H]3C(=O)N4CCC[C@H]4C(=O)N31)C(=O)N2,inactive,inactive,inactive,inactive,–,–
O=C1[C@@H]2CS[C@@]3(C(=O)Nc4ccccc43)N2C(=O)[C@@H]2CCCN12,inactive,inactive,inactive,inactive,–,–
CCOC(=O)[C@@]1(c2ccccc2N)SC[C@H]2C(=O)N3CCC[C@H]3C(=O)N21,–,–,–,–,14.8,–
O=C1[C@@H]2CS[C@@]3(C(=O)Nc4ccc(Br)cc43)N2C(=O)[C@@H]2CCCN12,inactive,inactive,inactive,inactive,–,–
CN1C(=O)[C@@]2(SC[C@H]3C(=O)N4CCC[C@H]4C(=O)N32)c2ccccc21,inactive,inactive,inactive,inactive,–,–
CCOC(=O)[C@@]1(c2cc(C)ccc2N)SC[C@H]2C(=O)N3CCC[C@H]3C(=O)N21,–,–,–,–,1.6,–
CN1C(=O)[C@]2(SC[C@H]3C(=O)N4CCC[C@H]4C(=O)N32)c2ccccc21,inactive,inactive,inactive,inactive,–,–
Cc1ccc2c(c1)[C@]1(SC[C@H]3C(=O)N4CCC[C@H]4C(=O)N31)C(=O)N2,inactive,inactive,inactive,inactive,–,–
O=C1[C@@H]2CS[C@]3(C(=O)Nc4ccccc43)N2C(=O)[C@@H]2CCCN12,inactive,inactive,inactive,inactive,–,–
COc1ccc2c(c1)NC(=O)[C@@]21C[C@H]2C(=O)N3CCC[C@H]3C(=O)N2[C@H]1C=C(C)C [SPIROTRYPROSTATIN A],–,–,–,–,–,198
